How the values were obtained:
[1] = Accelerated stability test of Type A powder; format: physicochemical; conditions: 40±2° C./75±5% RH
Description: (§1) Furthermore, a long-term stability test and an accelerated stability test of Type A (in the form of powder) are executed, and the results thereof are shown in Table 19 and Table 20, respectively. More specifically, for the long-term stability test, the packaging and storage condition: package in double PE bags with silica gel in an aluminum bag and in a paper drum; sample quantity: 0.6 g; temperature: 25±2° C.; % relative humidity: 60±5%; frequency of analysis: 0, 1, 2, 3, 6, 9, 12, 18, 24, 36, 48 and 60 months; duration: 60 months. As for the accelerated stability test, the packaging and storage condition: package in double PE bags with silica gel in an aluminum bag and in a paper drum; sample quantity: 0.6 g; temperature: 40±2° C.; % relative humidity: 75±5%; frequency of analysis: 0, 1, 2, 3 and 6 months; duration: 6 months.

[2] = Solid stability evaluation for 1/2/4 weeks;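 also: Solid-state physical and chemical stability tracked by XRPD for form, KF for water content, and HPLC for purity and assay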
Description: Type A/B were stored under the conditions of 60° C., 25° C./60% RH, 25° C./92.5% RH and 40° C./75% RH for 1/2/4 weeks for solid stability evaluation. Amorphous was stored under the conditions of 25° C./60% RH and 40° C./75% RH for 1/2/4 weeks for solid stability evaluation. The physical and chemical stability were evaluated by X-ray powder diffraction (XRPD), thermo gravimetric analysis (TGA)/Karl Fischer (KF), differential scanning calorimetry (DSC)/modulated differential I scanning calorimetry (mDSC), high performance liquid chromatography (HPLC) purity and assay, respectively.
XRPD, TGA, DSC and KF in this example are under the same conditions with those described in Example 2.
Agilent 1260 were utilized and detailed chromatographic conditions are listed in

[3] = Heating experiment of Type A (XRPD); format: physicochemical
[4] = Long-term stability test of Type A powder; format: physicochemical; conditions: 25±2° C./60±5% RH
Description: as §1

[5] = all storage conditions, 4 weeks

- Appearance ([1]; 0 months): Pale white powder
- Assay (HPLC) (98.0%~102.0%) (anhydrous basis) ([1]; 0 months): 101.6%
- Related substance (HPLC) ABT-301 dimer (NMT 0.5%) ([1]; 0 months): 0.03 a/a %
- Related substance (HPLC) Individual unknown Impurity (NMT 0.4%) ([1]; 0 months): 0.03%
- Related substance (HPLC) Total Impurities (NMT 1.0%) ([1]; 0 months): 0.08%
- Water content (KF) (NMT 4.0%) ([1]; 0 months): 2.6%
- Appearance ([1]; 1 month): Pale white powder
- Assay (HPLC) (98.0%~102.0%) (anhydrous basis) ([1]; 1 month): 100.2%
- Related substance (HPLC) ABT-301 dimer (NMT 0.5%) ([1]; 1 month): 0.03 a/a %
- Related substance (HPLC) Individual unknown Impurity (NMT 0.4%) ([1]; 1 month): 0.05%
- Related substance (HPLC) Total Impurities (NMT 1.0%) ([1]; 1 month): 0.12%
- Water content (KF) (NMT 4.0%) ([1]; 1 month): 2.6%
- Appearance ([1]; 2 months): Pale white powder
- Assay (HPLC) (98.0%~102.0%) (anhydrous basis) ([1]; 2 months): 101.2%
- Related substance (HPLC) ABT-301 dimer (NMT 0.5%) ([1]; 2 months): 0.03 a/a %
- Related substance (HPLC) Individual unknown Impurity (NMT 0.4%) ([1]; 2 months): 0.03%
- Related substance (HPLC) Total Impurities (NMT 1.0%) ([1]; 2 months): 0.09%
- Water content (KF) (NMT 4.0%) ([1]; 2 months): 2.6%
- Appearance ([1]; 3 months): Pale white powder
- Assay (HPLC) (98.0%~102.0%) (anhydrous basis) ([1]; 3 months): 101.8%
- Related substance (HPLC) ABT-301 dimer (NMT 0.5%) ([1]; 3 months): 0.03 a/a %
- Related substance (HPLC) Individual unknown Impurity (NMT 0.4%) ([1]; 3 months): 0.06%
- Related substance (HPLC) Total Impurities (NMT 1.0%) ([1]; 3 months): 0.11%
- Water content (KF) (NMT 4.0%) ([1]; 3 months): 2.6%
- Appearance ([1]; 6 months): Pale white powder
- Assay (HPLC) (98.0%~102.0%) (anhydrous basis) ([1]; 6 months): 99.8%
- Related substance (HPLC) ABT-301 dimer (NMT 0.5%) ([1]; 6 months): 0.03 a/a %
- Related substance (HPLC) Individual unknown Impurity (NMT 0.4%) ([1]; 6 months): 0.06%
- Related substance (HPLC) Total Impurities (NMT 1.0%) ([1]; 6 months): 0.13%
- Water content (KF) (NMT 4.0%) ([1]; 6 months): 2.6%
- Assay ([2]; 25° C./60% RH, 1 week): 96.4%
- Form (XRPD) ([2]; 25° C./60% RH, 1 week): Type A
- HPLC purity ([2]; 25° C./60% RH, 1 week): 99.85 Area %
- Assay ([2]; 25° C./60% RH, 2 weeks): 94.7%
- Form (XRPD) ([2]; 25° C./60% RH, 2 weeks): Type A
- HPLC purity ([2]; 25° C./60% RH, 2 weeks): 99.83 Area %
- Assay ([2]; 25° C./60% RH, 4 weeks): 96.4%
- Form (XRPD) ([2]; 25° C./60% RH, 4 weeks): Type A
- HPLC purity ([2]; 25° C./60% RH, 4 weeks): 99.84 Area %
- KF (water content) ([2]; 25° C./60% RH, 4 weeks): 2.8030%
- Assay ([2]; 40° C./75% RH, 1 week): 96.6%
- Form (XRPD) ([2]; 40° C./75% RH, 1 week): Type A
- HPLC purity ([2]; 40° C./75% RH, 1 week): 99.84 Area %
- Assay ([2]; 40° C./75% RH, 2 weeks): 95.6%
- Form (XRPD) ([2]; 40° C./75% RH, 2 weeks): Type A
- HPLC purity ([2]; 40° C./75% RH, 2 weeks): 99.84 Area %
- Assay ([2]; 40° C./75% RH, 4 weeks): 96.1%
- Form (XRPD) ([2]; 40° C./75% RH, 4 weeks): Type A
- HPLC purity ([2]; 40° C./75% RH, 4 weeks): 99.85 Area %
- KF (water content) ([2]; 40° C./75% RH, 4 weeks): 4.1509%
- Assay ([2]; 60° C., 1 week): 96.2%
- Form (XRPD) ([2]; 60° C., 1 week): Type A
- HPLC purity ([2]; 60° C., 1 week): 99.83 Area %
- Assay ([2]; 60° C., 2 weeks): 95.0%
- Form (XRPD) ([2]; 60° C., 2 weeks): Type A
- HPLC purity ([2]; 60° C., 2 weeks): 99.76 Area %
- Assay ([2]; 60° C., 4 weeks): 95.7%
- Form (XRPD) ([2]; 60° C., 4 weeks): Type A
- HPLC purity ([2]; 60° C., 4 weeks): 99.82 Area %
- KF (water content) ([2]; 60° C., 4 weeks): 4.3786%
- Assay ([2]; Initial): 95.6%
- Form (XRPD) ([2]; Initial): Type A
- HPLC purity ([2]; Initial): 99.84 Area %
- KF (water content) ([2]; Initial): 2.8220%
- Assay ([2]; […], 1 week): 96.3%
- Form (XRPD) ([2]; […], 1 week): Type A
- HPLC purity ([2]; […], 1 week): 99.85 Area %
- Assay ([2]; […], 2 weeks): 95.6%
- Form (XRPD) ([2]; […], 2 weeks): Type A
- HPLC purity ([2]; […], 2 weeks): 99.84 Area %
- Assay ([2]; […], 4 weeks): 96.5%
- Form (XRPD) ([2]; […], 4 weeks): Type A
- HPLC purity ([2]; […], 4 weeks): 99.85 Area %
- KF (water content) ([2]; […], 4 weeks): 3.1154%
- form change after solid stability [2, 5]: no form change
- form after heating (XRPD) ([3]; heated to 100° C. and cooled to RT): no form change
- form after heating (XRPD) ([3]; heated to 122° C./130° C. and cooled to RT): converted to a new form, named as Type B
- Appearance ([4]; 0 months): Pale white powder
- Assay (HPLC) (98.0%~102.0%) (anhydrous basis) ([4]; 0 months): 101.6%
- Related substance (HPLC) ABT-301 dimer (NMT 0.5%) ([4]; 0 months): 0 a/a %
- Related substance (HPLC) Individual unknown Impurity (NMT 0.4%) ([4]; 0 months): 0.03%
- Related substance (HPLC) Total Impurities (NMT 1.0%) ([4]; 0 months): 0.1%
- Water content (KF) (NMT 4.0%) ([4]; 0 months): 2.6%
- Appearance ([4]; 1 month): Pale white powder
- Assay (HPLC) (98.0%~102.0%) (anhydrous basis) ([4]; 1 month): 100.3%
- Related substance (HPLC) ABT-301 dimer (NMT 0.5%) ([4]; 1 month): 0 a/a %
- Related substance (HPLC) Individual unknown Impurity (NMT 0.4%) ([4]; 1 month): 0.05%
- Related substance (HPLC) Total Impurities (NMT 1.0%) ([4]; 1 month): 0.1%
- Water content (KF) (NMT 4.0%) ([4]; 1 month): 2.6%
- Appearance ([4]; 2 months): Pale white powder
- Assay (HPLC) (98.0%~102.0%) (anhydrous basis) ([4]; 2 months): 100.6%
- Related substance (HPLC) ABT-301 dimer (NMT 0.5%) ([4]; 2 months): 0 a/a %
- Related substance (HPLC) Individual unknown Impurity (NMT 0.4%) ([4]; 2 months): 0.05%
- Related substance (HPLC) Total Impurities (NMT 1.0%) ([4]; 2 months): 0.1%
- Water content (KF) (NMT 4.0%) ([4]; 2 months): 2.6%
- Appearance ([4]; 3 months): Pale white powder
- Assay (HPLC) (98.0%~102.0%) (anhydrous basis) ([4]; 3 months): 101.4%
- Related substance (HPLC) ABT-301 dimer (NMT 0.5%) ([4]; 3 months): 0 a/a %
- Related substance (HPLC) Individual unknown Impurity (NMT 0.4%) ([4]; 3 months): 0.07%
- Related substance (HPLC) Total Impurities (NMT 1.0%) ([4]; 3 months): 0.1%
- Water content (KF) (NMT 4.0%) ([4]; 3 months): 2.6%
- Appearance ([4]; 6 months): Pale white powder
- Assay (HPLC) (98.0%~102.0%) (anhydrous basis) ([4]; 6 months): 100.2%
- Related substance (HPLC) ABT-301 dimer (NMT 0.5%) ([4]; 6 months): 0 a/a %
- Related substance (HPLC) Individual unknown Impurity (NMT 0.4%) ([4]; 6 months): 0.05%
- Related substance (HPLC) Total Impurities (NMT 1.0%) ([4]; 6 months): 0.1%
- Water content (KF) (NMT 4.0%) ([4]; 6 months): 2.6%
- Appearance ([4]; 9 months): Pale white powder
- Assay (HPLC) (98.0%~102.0%) (anhydrous basis) ([4]; 9 months): 100.6%
- Related substance (HPLC) ABT-301 dimer (NMT 0.5%) ([4]; 9 months): 0 a/a %
- Related substance (HPLC) Individual unknown Impurity (NMT 0.4%) ([4]; 9 months): 0.06%
- Related substance (HPLC) Total Impurities (NMT 1.0%) ([4]; 9 months): 0.1%
- Water content (KF) (NMT 4.0%) ([4]; 9 months): 2.9%
- Appearance ([4]; 12 months): Pale white powder
- Assay (HPLC) (98.0%~102.0%) (anhydrous basis) ([4]; 12 months): 100.4%
- Related substance (HPLC) ABT-301 dimer (NMT 0.5%) ([4]; 12 months): 0 a/a %
- Related substance (HPLC) Individual unknown Impurity (NMT 0.4%) ([4]; 12 months): 0.09%
- Related substance (HPLC) Total Impurities (NMT 1.0%) ([4]; 12 months): 0.2%
- Water content (KF) (NMT 4.0%) ([4]; 12 months): 2.6%
- Appearance ([4]; 18 months): Pale white powder
- Assay (HPLC) (98.0%~102.0%) (anhydrous basis) ([4]; 18 months): 100.0%
- Related substance (HPLC) ABT-301 dimer (NMT 0.5%) ([4]; 18 months): 0 a/a %
- Related substance (HPLC) Individual unknown Impurity (NMT 0.4%) ([4]; 18 months): 0.07%
- Related substance (HPLC) Total Impurities (NMT 1.0%) ([4]; 18 months): 0.1%
- Water content (KF) (NMT 4.0%) ([4]; 18 months): 2.8%
- Appearance ([4]; 24 months): Pale white powder
- Assay (HPLC) (98.0%~102.0%) (anhydrous basis) ([4]; 24 months): 99.8%
- Related substance (HPLC) ABT-301 dimer (NMT 0.5%) ([4]; 24 months): 0 a/a %
- Related substance (HPLC) Individual unknown Impurity (NMT 0.4%) ([4]; 24 months): 0.03%
- Related substance (HPLC) Total Impurities (NMT 1.0%) ([4]; 24 months): 0.1%
- Water content (KF) (NMT 4.0%) ([4]; 24 months): 2.7%
- Appearance ([4]; 36 months): Pale wlite powder
- Assay (HPLC) (98.0%~102.0%) (anhydrous basis) ([4]; 36 months): 100.1%
- Related substance (HPLC) ABT-301 dimer (NMT 0.5%) ([4]; 36 months): 0 a/a %
- Related substance (HPLC) Individual unknown Impurity (NMT 0.4%) ([4]; 36 months): 0.08%
- Related substance (HPLC) Total Impurities (NMT 1.0%) ([4]; 36 months): 0.1%
- Water content (KF) (NMT 4.0%) ([4]; 36 months): 2.6%
- Appearance ([4]; 48 months): Pale white powder
- Assay (HPLC) (98.0%~102.0%) (anhydrous basis) ([4]; 48 months): 100.4%
- Related substance (HPLC) ABT-301 dimer (NMT 0.5%) ([4]; 48 months): 0 a/a %
- Related substance (HPLC) Individual unknown Impurity (NMT 0.4%) ([4]; 48 months): 0.08%
- Related substance (HPLC) Total Impurities (NMT 1.0%) ([4]; 48 months): 0.1%
- Water content (KF) (NMT 4.0%) ([4]; 48 months): 2.6%
- Appearance ([4]; 60 months): Pale white powder
- Assay (HPLC) (98.0%~102.0%) (anhydrous basis) ([4]; 60 months): 100.5%
- Related substance (HPLC) Individual unknown Impurity (NMT 0.4%) ([4]; 60 months): 0.08%
- Related substance (HPLC) Total Impurities (NMT 1.0%) ([4]; 60 months): 0.1%
- Water content (KF) (NMT 4.0%) ([4]; 60 months): 2.6%
SMILES: O=C(/C=C/c1ccc2c(c1)CCN2S(=O)(=O)c1ccccc1)NO [Type A, (E)-N-hydroxy-3-(1-(phenylsulfonyl)indolin-5-yl) acrylamide]
- HPLC purity change after solid stability [2, 5]: no form change, or obvious HPLC purity change

Reference: patent US12252469B2, “Crystalline forms of (E)-N-hydroxy-3-(1-(phenylsulfonyl)indolin-5-yl)acrylamide” (ANBOGEN THERAPEUTICS INC., priority 2023, dated 2025)
